Data reported in patent US7479564B2, “Aryl or heteroaryl fused imidazole compounds as anti-inflammatory and analgesic agents” (RaQualia Pharma Inc., priority 2000, dated 2009).

| SMILES | melting point |
| --- | --- |
| Cc1ccc(S(=O)(=O)NC(=O)OCCc2ccc(-n3c(CCC(=O)c4cccnc4)nc4cc(C(F)(F)F)c(Cl)cc43)cc2)cc1 | 89 to 95 °C |
| CCc1nc2cc(COC)c(Cl)cc2n1-c1ccc(CCOC(=O)NS(=O)(=O)c2ccc(C)cc2)cc1 | 174.5 °C |
| CCc1nc2c(C)cc(C)nc2n1-c1ccc(CC(C)OC(=O)NS(=O)(=O)c2ccc(C)cc2)cc1 (stereo not shown) [Example 7, 2-[4-(2-ETHYL-5,7-DIMETHYL-3H-IMIDAZO[4,5-b]PYRIDIN-3-YL)PHENYL]-1-METHYLETHYL (4-METHYLPHENYL)SULFONYLCARBAMATE] | 108 °C |
| CCc1nc2cc(C(=O)NC)c(Cl)cc2n1-c1ccc(CCOC(=O)NS(=O)(=O)c2ccc(C)cc2)cc1 [Example 334, 2-(4-{6CHLORO-2-ETHYL-5-[(METHYLAMINO)CARBONYL]-1H-BENZIMIDAZOL-1-YL}PHENYL)ETHYL (4-METHYLPHENYL)SULFONYLCARBAMATE] | 201 to 204 °C |
| CCc1nc2cc(CO)c(Cl)cc2n1-c1ccc(CCOC(=O)NS(=O)(=O)c2ccc(C)cc2)cc1 [Example 337, 2-{4-[6-CHLORO-2-ETHYL-5-(HYDROXYMETHYL)-1H-BENZIMIDAZOL-1-YL]PHENYL}ETHYL (4-METHYLPHENYL)SULFONYLCARBAMATE] | 172.7 °C |
| CCc1nc2cc(C(N)=O)c(Cl)cc2n1-c1ccc(CCOC(=O)NS(=O)(=O)c2ccc(C)cc2)cc1 | 170 to 175 °C |

Continued, values first:

| melting point | SMILES |
| --- | --- |
| 233.6 °C | Cc1ccc(S(=O)(=O)NC(=O)OCCc2ccc(-n3c(CCC(=O)c4ccccn4)nc4cc(C(F)(F)F)c(Cl)cc43)cc2)cc1 |
| 85 to 90 °C | Cc1ccc(S(=O)(=O)NC(=O)OCCc2ccc(-n3c(CCCN4CCCC4=O)nc4cc(C(F)(F)F)c(Cl)cc43)cc2)cc1 |
| 98 to 105 °C | Cc1ccc(S(=O)(=O)NC(=O)OCCc2ccc(-n3c(CCC(=O)N4CCCC4)nc4cc(C(F)(F)F)c(Cl)cc43)cc2)cc1 [Example 363, 2-{4-[6-CHLORO-2-[3-OXO-3-(1-PYRROLIDINYL)PROPYL]-5-(TRIFLUOROMETHYL)-1H-BENZIMIDAZOL-1-YL]PHENYL}ETHYL (4-METHYLPHENYL)SULFONYLCARBAMATE] |
| 210 °C | Cc1ccc(S(=O)(=O)NC(=O)OCCc2ccc(-n3c(CCC(=O)N4CCCCC4)nc4cc(C(F)(F)F)c(Cl)cc43)cc2)cc1 |
